Measurements published in paper doi:10.1101/2021.05.17.444542v1, “Structure Activity Relationship of USP5 Allosteric Inhibitors” (biorxiv, 2021).

These compounds were tested against T1, USP5 ZnF-UBD (USP5 171-290) (Homo sapiens, UniProt P45974). Conditions: FITC-ubiquitin displacement, N=1; 100 µM; inhibitor.
T1 sequence (P45974 171-290): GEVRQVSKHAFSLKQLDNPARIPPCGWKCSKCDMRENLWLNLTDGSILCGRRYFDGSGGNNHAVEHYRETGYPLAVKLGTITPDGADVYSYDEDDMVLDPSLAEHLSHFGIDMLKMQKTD

Compound	% inhibition
O=C(O)CCC(=O)c1cccc(NS(=O)(=O)c2c[nH]c3ncccc23)c1 [S1]	40%
Cc1ccc(C(=O)O)cc1S(=O)(=O)Nc1cccc(C(=O)CCC(=O)O)c1 [S2]	36%
CC(CC(=O)c1cccc(-c2ccc3c(c2)CCCO3)c1)C(=O)O (stereo not drawn) [S3]	31%
CN(c1ccc(S(C)(=O)=O)cc1)S(=O)(=O)c1ccc(C(=O)CCC(=O)O)cc1 [S4]	61%
O=C(O)CCC(=O)c1cccc(NS(=O)(=O)c2c[nH]c(C(=O)N3CCCC3)c2)c1 [S5]	50%
O=C(O)CCC(=O)c1cccc(NS(=O)(=O)c2cc(F)cc(C(=O)O)c2)c1 [S6]	3%

Second part, the compound after the results:

% inhibition	Compound
32%	CCCn1nc(C)c(-c2ccc(OC)c(C(=O)CCC(=O)O)c2)c1C [S7]
37%	Cc1ccc(OC(C)CNS(=O)(=O)c2ccc(C(=O)CCC(=O)O)cc2)cc1 (stereo not drawn) [S8]
26%	O=C(O)CCC(=O)c1cccc(NS(=O)(=O)c2ccc(Cl)c(C(=O)O)c2)c1 [S9]
